# Reference: patent US5939458A, “Reduction of hair growth” (priority 1997, dated 1999)
# What was measured:
# flank organ hair growth = assay: Golden Syrian hamster assay (flank organ hair mass after thirteen topical applications); type: in vivo
# Text: Male intact Golden Syrian hamsters are considered acceptable models for human beard hair growth in that they display oval shaped flank organs, one on each side, each about 8 mm. in major diameter, which grow thick black and coarse hair similar to human beard hair. These organs produce hair in response to androgens in the hamster. To evaluate the effectiveness of a composition including an aminoacyl-tRNA synthetase inhibitor, the flank organs of each of a group of hamsters are shaved. To one organ of each animal 10 μl. of vehicle alone once a day is applied, while to the other organ of each animal an equal amount of vehicle containing a aminoacyl-tRNA inhibitor is applied. After thirteen applications (one application per day for five days a week), the flank organs are shaved and the amount of recovered hair (hair mass) from each is weighed. Percent-reduction of hair growth is calculated by subtracting the hair mass (mg) value of the test compound treated side from the hair mass value of the vehicle treated side; the delta value obtained is then divided by the hair mass value of the vehicle treated side, and the resultant number is multiplied by 100.
# The above-described assay will be referred to herein as the "Golden Syrian hamster" assay. Preferred compositions provide a reduction in hair growth of at least about 25%, more preferably at least about 50%, and most preferably at least about 60% when tested in the Golden Syrian hamster assay.
# [1] = test system: Leucine tRNA synthetase (hair follicle extract); assay: Hair follicle aminoacyl-tRNA synthetase inhibition, 14C leucine incorporation; type: biochemical; settings: 0.96 μmole/ml inhibitor (leucinamide: similar concentration); 37° C., 60 minutes
# Procedure: Inhibition of hair follicle aminoacyl-tRNA synthetase was determined using a modification of the procedure described by Hampel et. al (Aminoacyl-tRNASynthetases from Cultured CHO Cells (1979) Methods in Enzymology, Vol. LIX, pp 229-234). A reaction mixture containing the following was used for each assay: 50 mM Tris (pH 7.4), 15 mM MgCl2, 0.5 mM EDTA (adjusted to pH 7), 5 mM ATP (adjusted to pH 7, 0.35 mM CTP, 20 μM ^14 C amino acid and tRNA (50 μg/ml). Leucine and serine tRNA synthetase were assayed with a pH 8.6 buffer and a MgCl2 concentration of 8 mM. The reaction mixture is mixed with the hair follicle extract so that the final assay volume is 100 μl. Typically, 90-95 μl of the reaction mixture was mixed with 5-10 μl of the hair follicles extract. The reaction was carried out at 37° C. for 60 minutes. The reaction was terminated by removing the reaction mixture and placing it on a piece of filter paper that had been soaked with 10% trichloroacetic acid. The filter paper was washed 3 times in 10% trichloroacetic acid and 3 times in 5% trichloroacetic acid. The filter paper was dried and the insoluble radioactivity, corresponding to the ^14 C-aminoacyl-tRNA, was counted in a scintillation counter.
# The incorporation of the ^14 C amino acid varied from 178 dpm/mM to 3,093 dpm/mM in the assays of the amino acids mentioned above. […]
# [2] = Table 1, dose 15%, vehicle B, pH 6.5
# [3] = Table 2 dose response, dose 1%, pH 5.5, vehicle 90% H2O, 6% dipropylene glycol, 4% ethanol
# [4] = Table 2 dose response, dose 5%, pH 6.5, vehicle 90% H2O, 6% dipropylene glycol, 4% ethanol
# [5] = Table 2 dose response, dose 7.5%, pH 6.5, vehicle 90% H2O, 6% dipropylene glycol, 4% ethanol
smiles,measurement,setting,value
CSCCC(C)(N)C(=O)O (racemic) [α-methyl-DL-methionine],% Inhibition of hair growth,flank organ hair growth; [2],31 ± 7%
same,Treated (mg) hair mass,flank organ hair growth; [2],1.10 ± .15 mg
CC(C)C[C@H](N)CO [L-leucinol],inhibition of leucine incorporation,[1],18%
N[C@@H](CSC(c1ccccc1)(c1ccccc1)c1ccccc1)C(=O)O [S-trityl-L-cysteine],% Inhibition of hair growth,flank organ hair growth; [3],35 ± 9%
same,Treated (mg) hair mass,flank organ hair growth; [3],0.88 ± .10 mg
same,% Inhibition of hair growth,flank organ hair growth; [4],56 ± 6%
same,Treated (mg) hair mass,flank organ hair growth; [4],0.90 ± .17 mg
same,% Inhibition of hair growth,flank organ hair growth; [5],80 ± 6%
same,Treated (mg) hair mass,flank organ hair growth; [5],0.35 ± .10 mg
same,Dose response of hair growth reduction,flank organ hair growth; increasing the concentration of the inhibitor in the composition,increased hair growth reduction
CC(C)CC(N)C(N)=O (centres unmarked) [lucinamide],inhibition of leucine incorporation,[1],83%
